In brackets after ≈: the same amount, converted by molar mass.
Experiments:
[1] = AUC in CD1 mouse at 3 mg/kg, iv; assay type: ADME, organism-based; design: dose 3 mg/kg, route iv; settings: in vivo
[2] = Permeability of compound at pH 7.4 by PAMPA assay; assay type: ADME; settings: read-out: permeability
Cytochrome P450 3A4 = Cytochrome P450 3A4 (Homo sapiens, UniProt P08684); experiment: Inhibition of CYP3A4 (unknown origin); assay type: ADME
[3] = Solubility of compound at pH 7.4; assay type: physicochemical; settings: buffer
[4] = Half life in CD1 mouse at 10 mg/kg, po; assay type: ADME, organism-based; settings: in vivo
Cytochrome P450 2C9 = Cytochrome P450 2C9 (Homo sapiens, UniProt P11712); experiment: Inhibition of CYP2C9 (unknown origin); assay type: ADME
[5] = Oral bioavailability in CD1 mouse at 10 mg/kg; assay type: ADME, organism-based; settings: in vivo
[6] = Plasma protein binding in mouse assessed as unbound fraction; assay type: ADME, cell-free
[7] = Plasma clearance in CD1 mouse at 3 mg/kg, iv; assay type: ADME, organism-based; settings: in vivo
[8] = Tmax in CD1 mouse at 10 mg/kg, po; assay type: ADME, organism-based; settings: in vivo
[9] = Cmax in Sprague-Dawley rat at 3 mg/kg, po; assay type: ADME, organism-based; design: dose 3 mg/kg, route po; settings: in vivo
[10] = Half life in Sprague-Dawley rat at 0.5 mg/kg, iv; assay type: ADME, organism-based; settings: in vivo
[11] = Oral bioavailability in Sprague-Dawley rat at 3 mg/kg; assay type: ADME, organism-based; settings: in vivo
Cytochrome P450 2D6 = Cytochrome P450 2D6 (Homo sapiens, UniProt P10635); experiment: Inhibition of CYP2D6 (unknown origin); assay type: ADME
[12] = Volume of distribution at steady state in Sprague-Dawley rat at 0.5 mg/kg, iv; assay type: ADME, organism-based; settings: in vivo, read-out: Vdss
Cytochrome P450 1A2 = molecular target: T1, Cytochrome P450 1A2 (Homo sapiens, UniProt P05177); experiment: Inhibition of CYP1A2 (unknown origin); assay type: ADME
T1 sequence (P05177 whole entry): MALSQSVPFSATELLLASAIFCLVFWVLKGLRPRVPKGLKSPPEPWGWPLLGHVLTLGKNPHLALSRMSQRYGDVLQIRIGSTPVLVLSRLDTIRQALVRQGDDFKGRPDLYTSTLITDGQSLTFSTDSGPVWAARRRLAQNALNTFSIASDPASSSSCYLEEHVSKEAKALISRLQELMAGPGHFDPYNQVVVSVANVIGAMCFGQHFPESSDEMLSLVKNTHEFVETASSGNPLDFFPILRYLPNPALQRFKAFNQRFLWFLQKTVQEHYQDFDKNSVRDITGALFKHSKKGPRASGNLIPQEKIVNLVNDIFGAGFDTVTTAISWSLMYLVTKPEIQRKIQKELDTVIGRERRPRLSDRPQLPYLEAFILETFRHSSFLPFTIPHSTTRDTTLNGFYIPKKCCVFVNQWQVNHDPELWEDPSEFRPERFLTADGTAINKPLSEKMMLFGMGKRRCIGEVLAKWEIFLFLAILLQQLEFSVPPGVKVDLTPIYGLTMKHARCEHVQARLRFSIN

[13] = Plasma clearance in Sprague-Dawley rat at 0.5 mg/kg, iv; assay type: ADME, organism-based; settings: in vivo
[14] = Cmax in CD1 mouse at 10 mg/kg, po; assay type: ADME, organism-based; design: dose 10 mg/kg, route po; settings: in vivo
[15] = AUC (0 to infinity) in CD1 mouse at 10 mg/kg, po; assay type: ADME, organism-based; design: dose 10 mg/kg, route po; settings: in vivo
[16] = Tmax in Sprague-Dawley rat at 3 mg/kg, po; assay type: ADME, organism-based; settings: in vivo
[17] = AUC in Sprague-Dawley rat at 0.5 mg/kg, iv; assay type: ADME, organism-based; design: dose 0.5 mg/kg, route iv; settings: in vivo
[18] = Half life in Sprague-Dawley rat at 3 mg/kg, po; assay type: ADME, organism-based; settings: in vivo
[19] = Volume of distribution at steady state in CD1 mouse at 3 mg/kg, iv; assay type: ADME, organism-based; settings: in vivo, read-out: Vdss
[20] = AUC (0 to infinity) in Sprague-Dawley rat at 3 mg/kg, po; assay type: ADME, organism-based; design: dose 3 mg/kg, route po; settings: in vivo
[21] = Half life in CD1 mouse at 3 mg/kg, iv; assay type: ADME, organism-based; settings: in vivo
Glucocorticoid receptor = molecular target: T2, Glucocorticoid receptor (Homo sapiens, UniProt P04150); experiment: Inhibition of glucocorticoid receptor (unknown origin)
T2 sequence (P04150 whole entry): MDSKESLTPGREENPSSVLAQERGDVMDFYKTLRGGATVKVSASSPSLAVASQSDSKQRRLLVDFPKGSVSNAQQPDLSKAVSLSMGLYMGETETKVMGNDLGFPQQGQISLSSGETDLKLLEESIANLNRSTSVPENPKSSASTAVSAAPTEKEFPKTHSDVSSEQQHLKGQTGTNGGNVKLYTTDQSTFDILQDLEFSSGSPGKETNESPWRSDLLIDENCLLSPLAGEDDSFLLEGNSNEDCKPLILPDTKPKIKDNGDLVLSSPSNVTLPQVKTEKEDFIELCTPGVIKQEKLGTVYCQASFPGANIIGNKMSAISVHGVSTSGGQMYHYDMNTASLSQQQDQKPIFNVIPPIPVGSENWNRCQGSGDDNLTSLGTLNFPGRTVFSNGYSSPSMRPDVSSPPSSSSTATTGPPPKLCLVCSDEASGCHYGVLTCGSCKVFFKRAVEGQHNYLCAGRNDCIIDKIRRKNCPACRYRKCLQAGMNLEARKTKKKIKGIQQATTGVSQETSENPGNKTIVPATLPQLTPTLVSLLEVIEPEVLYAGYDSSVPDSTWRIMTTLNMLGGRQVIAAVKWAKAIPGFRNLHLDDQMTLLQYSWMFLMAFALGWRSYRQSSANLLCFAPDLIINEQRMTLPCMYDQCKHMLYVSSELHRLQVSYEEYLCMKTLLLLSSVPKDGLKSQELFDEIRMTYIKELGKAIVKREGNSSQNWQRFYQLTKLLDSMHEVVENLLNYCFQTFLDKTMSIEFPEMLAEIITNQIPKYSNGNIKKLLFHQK

[22] = Permeability of the compound by PAMPA assay; assay type: ADME; settings: read-out: permeability

Chain of Cytochrome P450 2C9 (P11712 whole entry): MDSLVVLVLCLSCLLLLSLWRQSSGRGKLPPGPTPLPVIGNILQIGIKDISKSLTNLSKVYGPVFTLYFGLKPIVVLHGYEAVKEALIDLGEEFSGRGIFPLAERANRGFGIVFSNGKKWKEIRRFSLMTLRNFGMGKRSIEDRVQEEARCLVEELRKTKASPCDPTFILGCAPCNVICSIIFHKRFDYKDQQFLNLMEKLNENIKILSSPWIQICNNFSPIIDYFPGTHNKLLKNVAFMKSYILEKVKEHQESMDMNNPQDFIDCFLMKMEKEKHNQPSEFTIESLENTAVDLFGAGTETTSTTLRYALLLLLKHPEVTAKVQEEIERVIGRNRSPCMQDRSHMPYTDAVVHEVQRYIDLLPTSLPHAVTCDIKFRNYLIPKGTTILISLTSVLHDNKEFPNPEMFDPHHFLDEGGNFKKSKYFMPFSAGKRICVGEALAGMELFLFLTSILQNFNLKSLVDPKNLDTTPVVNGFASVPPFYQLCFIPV
Chain of Cytochrome P450 2D6 (P10635 whole entry): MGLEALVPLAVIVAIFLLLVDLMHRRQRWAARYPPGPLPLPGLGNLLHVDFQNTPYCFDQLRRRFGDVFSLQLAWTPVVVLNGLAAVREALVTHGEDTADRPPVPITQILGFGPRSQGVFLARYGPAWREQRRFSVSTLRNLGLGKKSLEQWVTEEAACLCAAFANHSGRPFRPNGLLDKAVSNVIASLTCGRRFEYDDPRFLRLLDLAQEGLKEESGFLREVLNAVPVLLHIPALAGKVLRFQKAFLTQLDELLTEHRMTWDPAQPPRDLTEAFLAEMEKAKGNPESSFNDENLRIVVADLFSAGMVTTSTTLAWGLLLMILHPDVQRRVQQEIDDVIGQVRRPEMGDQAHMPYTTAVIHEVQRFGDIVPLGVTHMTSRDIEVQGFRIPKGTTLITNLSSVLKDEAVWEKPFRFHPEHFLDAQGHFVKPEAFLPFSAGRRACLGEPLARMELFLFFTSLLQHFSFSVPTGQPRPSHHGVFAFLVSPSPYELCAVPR
Chain of Cytochrome P450 3A4 (P08684 whole entry): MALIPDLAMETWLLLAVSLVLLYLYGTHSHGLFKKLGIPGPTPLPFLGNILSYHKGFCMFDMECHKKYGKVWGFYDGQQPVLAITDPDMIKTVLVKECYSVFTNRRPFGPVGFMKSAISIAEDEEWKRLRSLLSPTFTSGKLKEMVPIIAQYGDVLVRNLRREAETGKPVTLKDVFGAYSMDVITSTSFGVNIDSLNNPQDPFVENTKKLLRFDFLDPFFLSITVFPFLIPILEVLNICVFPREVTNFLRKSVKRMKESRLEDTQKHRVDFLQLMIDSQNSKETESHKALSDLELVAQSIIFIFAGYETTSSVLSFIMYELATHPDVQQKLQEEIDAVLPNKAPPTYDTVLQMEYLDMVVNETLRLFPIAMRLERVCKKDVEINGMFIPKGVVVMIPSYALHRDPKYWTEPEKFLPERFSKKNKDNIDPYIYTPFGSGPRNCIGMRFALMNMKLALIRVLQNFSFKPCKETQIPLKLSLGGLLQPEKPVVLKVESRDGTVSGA

Question: For `C[C@]12C=CC(=O)C=C1CC[C@@H]1[C@@H]2[C@@H](O)C[C@@]2(C)[C@H]1C[C@H]1O[C@@H](c3ccc(Cc4cccc(N)c4)cc3)O[C@]12C(=O)CO`, which AUC [1] is on record?
Answer: The AUC was 3580 ng·h/mL.

Question: What about the Papp [2] of the same compound?
Answer: Its Papp is 0.2 ×10⁻⁶ cm/s.

Question: And the IC50 (Cytochrome P450 3A4)?
Answer: The IC50 was under 0.02 µM.

Question: And the solubility [3]?
Answer: Its solubility is 1.33 µM (≈ 0.758 µg/mL).

Question: What about the half-life [4] of the same compound?
Answer: The half-life was 3.56 h.

Question: And the IC50 (Cytochrome P450 2C9)?
Answer: Its IC50 is 18.4 µM.

Question: And the bioavailability [5]?
Answer: Its bioavailability is 1%.

Question: And the Fu [6]?
Answer: The Fu was 0.01%.

Question: What about the clearance [7] of the same compound?
Answer: The clearance was 14.2 mL/min/kg.

Question: What about the Tmax [8] of the same compound?
Answer: Its Tmax is 1.42 h.

Question: What about the Cmax [9] of the same compound?
Answer: Its Cmax is 80 ng/mL.

Question: And the half-life [10]?
Answer: The half-life was 1.2 h.

Question: And the bioavailability [11]?
Answer: The bioavailability was 16.8%.

Question: And the IC50 (Cytochrome P450 2D6)?
Answer: Its IC50 is over 40 µM.

Question: What about the Vd [12] of the same compound?
Answer: Its Vd is 2.55 L/kg.

Question: What about the IC50 (Cytochrome P450 1A2) of the same compound?
Answer: Its IC50 is over 40 µM.

Question: What about the clearance [13] of the same compound?
Answer: Its clearance is 37.8 mL/min/kg.

Question: What about the Cmax [14] of the same compound?
Answer: The Cmax was 40 ng/mL.

Question: What about the AUC [15] of the same compound?
Answer: Its AUC is 0.21 µg/h/mL.

Question: And the Tmax [16]?
Answer: Its Tmax is 0.25 h.

Question: What about the AUC [17] of the same compound?
Answer: The AUC was 220 ng·h/mL.

Question: And the half-life [18]?
Answer: Its half-life is 2.86 h.

Question: And the Vd [19]?
Answer: The Vd was 2.91 L/kg.

Question: And the AUC(0-inf) [20]?
Answer: The AUC(0-inf) was 220 ng·h/mL.

Question: And the half-life [21]?
Answer: The half-life was 3.82 h.

Question: Which IC50 (Glucocorticoid receptor) does the source give for `C[C@]12C=CC(=O)C=C1CC[C@@H]1[C@@H]2[C@@H](O)C[C@@]2(C)[C@H]1C[C@H]1O[C@@H](C3CCCCC3)O[C@]12C(=O)CO` [DESISOBUTYRYLCICLESONIDE] here?
Answer: Its IC50 is 0.002 µM.

Question: With `C[C@]12C=CC(=O)C=C1[C@@H](F)C[C@H]1[C@@H]3C[C@H]4O[C@@H](c5ccc(CN6CCNCC6)cc5)O[C@@]4(C(=O)CO)[C@@]3(C)C[C@H](O)[C@@]12F` as the compound, how does the Papp [22] read?
Answer: Its Papp is 0.22 ×10⁻⁶ cm/s.

Question: Which Papp [22] does the source give for `C[C@]12C=CC(=O)C=C1CC[C@@H]1[C@@H]2[C@@H](O)C[C@@]2(C)[C@H]1C[C@H]1O[C@@H](c3ccc(CN4CCNCC4)cc3)O[C@]12C(=O)CO` here?
Answer: The Papp was 0.23 ×10⁻⁶ cm/s.
